Source: ChEMBL document CHEMBL5126653, “Targeted Degradation of Androgen Receptor for the Potential Treatment of Prostate Cancer” (ACS Med Chem Lett, 2022)

Molecular target: Protein cereblon/Androgen receptor (Homo sapiens) (UniProt P10275+Q96SW2)
Assay: In vivo protac activity at CRBN/AR in human VCaP cells xenografted in CB17 mouse assessed as increase in Androgen receptor degradation at 10 mg/kg, po for 16 hrs by ELISA
Assay type: functional, organism-based

Chain of Protein cereblon/Androgen receptor (Homo sapiens) (P10275 whole entry, looked up): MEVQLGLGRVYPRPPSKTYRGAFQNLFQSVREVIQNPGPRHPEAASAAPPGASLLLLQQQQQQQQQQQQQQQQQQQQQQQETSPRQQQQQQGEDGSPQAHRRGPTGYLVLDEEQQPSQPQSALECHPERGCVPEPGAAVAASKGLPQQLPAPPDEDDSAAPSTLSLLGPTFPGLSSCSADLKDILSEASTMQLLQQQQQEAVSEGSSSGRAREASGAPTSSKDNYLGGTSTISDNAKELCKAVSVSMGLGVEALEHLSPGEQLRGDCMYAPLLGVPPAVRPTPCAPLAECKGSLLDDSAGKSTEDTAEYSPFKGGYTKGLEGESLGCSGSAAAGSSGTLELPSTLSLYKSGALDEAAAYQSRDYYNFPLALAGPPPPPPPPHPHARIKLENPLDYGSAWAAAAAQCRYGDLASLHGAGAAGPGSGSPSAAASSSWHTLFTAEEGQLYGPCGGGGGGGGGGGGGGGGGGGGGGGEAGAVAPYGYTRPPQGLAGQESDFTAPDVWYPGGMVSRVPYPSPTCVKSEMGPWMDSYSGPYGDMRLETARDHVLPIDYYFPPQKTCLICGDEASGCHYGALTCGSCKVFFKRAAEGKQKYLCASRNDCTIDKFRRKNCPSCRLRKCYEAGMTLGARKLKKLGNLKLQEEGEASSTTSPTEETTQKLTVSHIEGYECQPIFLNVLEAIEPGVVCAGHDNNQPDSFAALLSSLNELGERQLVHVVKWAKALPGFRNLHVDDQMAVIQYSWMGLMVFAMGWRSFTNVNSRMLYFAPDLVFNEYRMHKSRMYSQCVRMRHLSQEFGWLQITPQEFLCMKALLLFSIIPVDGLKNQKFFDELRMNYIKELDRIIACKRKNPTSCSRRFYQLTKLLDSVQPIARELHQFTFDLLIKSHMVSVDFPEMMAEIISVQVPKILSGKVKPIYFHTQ
Chain of Protein cereblon/Androgen receptor (Homo sapiens) (Q96SW2 whole entry, looked up): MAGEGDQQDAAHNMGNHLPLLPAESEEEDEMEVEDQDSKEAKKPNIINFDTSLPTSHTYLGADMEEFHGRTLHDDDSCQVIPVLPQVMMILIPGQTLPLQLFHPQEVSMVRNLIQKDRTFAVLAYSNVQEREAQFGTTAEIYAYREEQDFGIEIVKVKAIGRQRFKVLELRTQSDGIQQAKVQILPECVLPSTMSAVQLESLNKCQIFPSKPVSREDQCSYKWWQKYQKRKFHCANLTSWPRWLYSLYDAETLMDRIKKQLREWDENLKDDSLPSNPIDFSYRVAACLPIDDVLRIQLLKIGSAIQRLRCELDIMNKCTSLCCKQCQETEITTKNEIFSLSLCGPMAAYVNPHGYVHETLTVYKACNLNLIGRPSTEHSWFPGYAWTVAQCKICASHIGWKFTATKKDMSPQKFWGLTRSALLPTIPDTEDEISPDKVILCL

Question: How did the Activity turn out when `CC1(C)[C@H](NC(=O)c2ccc(CCCCN3CCN(c4ccc5c(c4)C(=O)N(C4CCC(=O)NC4=O)C5=O)CC3)nc2)C(C)(C)[C@H]1Oc1ccc(C#N)c(Cl)c1` (stereo not given in full) was run?
Answer: Its Activity is 10%.

Question: Which Activity does the source give for `CC1(C)[C@H](NC(=O)c2ccc(N3CCN(CCCOc4ccc5c(c4)C(=O)N(C4CCC(=O)NC4=O)C5=O)CC3)cc2)C(C)(C)[C@H]1Oc1ccc(C#N)c(Cl)c1` (stereo not given in full) here?
Answer: The Activity was less than 1%.

Question: `CC1(C)[C@H](NC(=O)c2cnc(N3CCN(CCCCCOc4ccc5c(c4)C(=O)N(C4CCC(=O)NC4=O)C5=O)CC3)nc2)C(C)(C)[C@H]1Oc1ccc(C#N)c(Cl)c1` (stereo not given in full) was tested. Which Activity did it give?
Answer: Its Activity is less than 1%.

Question: For `CC1(C)[C@H](NC(=O)c2ccc(N3CCC(CN4CCN(c5ccc6c(c5)C(=O)N(C5CCC(=O)NC5=O)C6=O)CC4)CC3)nc2)C(C)(C)[C@H]1Oc1ccc(C#N)c(Cl)c1` (stereo not given in full), which Activity is on record?
Answer: The Activity was less than 1%.

Question: For `CC1(C)[C@H](NC(=O)c2ccc(N3CCN(CC4CCN(c5ccc6c(c5)C(=O)N(C5CCC(=O)NC5=O)C6=O)CC4)CC3)cc2)C(C)(C)[C@H]1Oc1ccc(C#N)c(Cl)c1` (stereo not given in full), which Activity is on record?
Answer: Its Activity is 1%.

Question: `CC1(C)[C@H](NC(=O)c2ccc(N3CCN(CCCCCOc4ccc5c(c4)C(=O)N(C4CCC(=O)NC4=O)C5=O)CC3)nc2)C(C)(C)[C@H]1Oc1ccc(C#N)c(Cl)c1` (stereo not given in full) was tested. Which Activity did it give?
Answer: Its Activity is less than 1%.

Question: Which Activity does the source give for `CC1(C)[C@H](NC(=O)c2ncc(N3CCN(CCCCCOc4ccc5c(c4)C(=O)N(C4CCC(=O)NC4=O)C5=O)CC3)cn2)C(C)(C)[C@H]1Oc1ccc(C#N)c(Cl)c1` (stereo not given in full) here?
Answer: The Activity was 1%.

Question: Which Activity does the source give for `CC1(C)[C@H](NC(=O)c2ccc(N3CCN(CC4CN(c5ccc6c(c5)C(=O)N(C5CCC(=O)NC5=O)C6=O)C4)CC3)cc2)C(C)(C)[C@H]1Oc1ccc(C#N)c(Cl)c1` (stereo not given in full) here?
Answer: Its Activity is less than 1%.

Question: For `CC1(C)[C@H](NC(=O)c2cnc(N3CCC(CN4CCN(c5ccc6c(c5)C(=O)N(C5CCC(=O)NC5=O)C6=O)CC4)CC3)nc2)C(C)(C)[C@H]1Oc1ccc(C#N)c(Cl)c1` (stereo not given in full), which Activity is on record?
Answer: The Activity was less than 1%.

Question: For `CC1(C)[C@H](NC(=O)c2ccc(C3CCC(CN4CCN(c5ccc6c(c5)C(=O)N(C5CCC(=O)NC5=O)C6=O)CC4)CC3)cc2)C(C)(C)[C@H]1Oc1ccc(C#N)c(Cl)c1` (stereo not given in full), which Activity is on record?
Answer: Its Activity is 1%.
